Measured values published in patent publication US6680335B2, “Methods of modulating protein tyrosine kinase function with substituted indolinone compounds” (Sugen, Inc., priority 1998, dated 2004).

Tests used:
FLK-1 receptor = biological target: T1, FLK-1 receptor (Mus musculus, UniProt P35918); assay: ELISA assay measuring the kinase activity of the FLK-1 receptor in cells engineered to express FLK-1; assay type: cell-based; conditions: FLK-1 expressing NIH3T3 C7#3 cells, VEGF stimulated; for inhibition at 100 µM: compound at 100 μM
T1 construct: expressed in transfected cells; host or cells: NIH3T3 C7#3 cells
T1 sequence (P35918 20-1345): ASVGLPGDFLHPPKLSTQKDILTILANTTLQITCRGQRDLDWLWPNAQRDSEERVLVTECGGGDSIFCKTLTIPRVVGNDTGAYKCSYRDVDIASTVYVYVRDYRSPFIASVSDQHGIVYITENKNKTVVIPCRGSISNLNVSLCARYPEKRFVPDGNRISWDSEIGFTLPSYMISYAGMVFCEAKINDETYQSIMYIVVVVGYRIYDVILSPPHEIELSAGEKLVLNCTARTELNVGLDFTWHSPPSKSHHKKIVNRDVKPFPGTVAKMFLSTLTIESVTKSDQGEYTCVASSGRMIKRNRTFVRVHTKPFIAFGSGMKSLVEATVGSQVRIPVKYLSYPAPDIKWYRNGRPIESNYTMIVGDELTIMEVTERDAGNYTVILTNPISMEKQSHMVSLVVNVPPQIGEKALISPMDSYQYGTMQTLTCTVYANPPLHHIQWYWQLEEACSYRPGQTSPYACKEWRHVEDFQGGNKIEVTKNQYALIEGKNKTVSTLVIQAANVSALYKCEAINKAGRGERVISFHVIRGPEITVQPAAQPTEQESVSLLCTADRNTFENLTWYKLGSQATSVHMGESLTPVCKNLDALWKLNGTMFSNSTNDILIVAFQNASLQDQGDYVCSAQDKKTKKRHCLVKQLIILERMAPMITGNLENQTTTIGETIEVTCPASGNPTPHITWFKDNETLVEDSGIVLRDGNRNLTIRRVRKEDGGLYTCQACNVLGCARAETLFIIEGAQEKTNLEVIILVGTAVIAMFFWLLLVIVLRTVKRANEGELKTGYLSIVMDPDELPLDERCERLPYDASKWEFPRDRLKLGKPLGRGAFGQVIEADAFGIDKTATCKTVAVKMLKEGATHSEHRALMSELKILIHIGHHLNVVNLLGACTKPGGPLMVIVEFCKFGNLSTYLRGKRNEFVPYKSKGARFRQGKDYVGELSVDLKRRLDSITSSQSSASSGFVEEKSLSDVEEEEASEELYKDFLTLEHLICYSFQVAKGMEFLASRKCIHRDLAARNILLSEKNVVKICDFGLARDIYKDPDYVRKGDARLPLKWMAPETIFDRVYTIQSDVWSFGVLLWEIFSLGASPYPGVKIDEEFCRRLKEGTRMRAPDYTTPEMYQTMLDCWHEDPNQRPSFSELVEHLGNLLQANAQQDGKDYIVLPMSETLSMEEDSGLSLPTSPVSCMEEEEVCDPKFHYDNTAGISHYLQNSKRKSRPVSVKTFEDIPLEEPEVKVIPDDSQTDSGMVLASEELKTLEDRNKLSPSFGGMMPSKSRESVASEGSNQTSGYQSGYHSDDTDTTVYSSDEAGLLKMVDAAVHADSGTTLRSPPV
Description: An ELISA assay was conducted to measure the kinase activity of the FLK-1 receptor and more specifically, the inhibition or activation of TK activity on the FLK-1 receptor. Specifically, the following assay was conducted to measure kinase activity of the FLK-1 receptor in cells genetically engineered to express FLK-1.
(11) NIH3T3 C7#3 Cells (FLK-1 expressing cells);
The following protocol was used for conducting the assay:
1. Coat Corning 96-well elisa plates with 1.0 μg per well Cappel Anti-rabbit IgG antibody in 0.1 M Na2CO3 pH 9.6. Bring final volume to 150 μL per well. Coat plates overnight at 4° C. Plates can be kept up to two weeks when stored at 4° C.
2. Grow cells in Growth media (DMEM, supplemental with 2.0 mM L-Glutamine, 10% FBS) in suitable culture dishes until confluent at 37° C., 5% CO2.
3. Harvest cells by trypsinization and seed in Corning 25850 polystyrene 96-well roundbottom cell plates, 25.000 cells/well in 200 μL of growth media.
4. Grow cells at least one day at 37° C., 5% CO2.
5. Wash cells with D-PBS 1×.
6. Add 200 μL/well of starvation media (DMEM, 2.0 mM 1-Glutamine, 0.1% FBS). Incubate overnight at 37° C., 5% CO2.
7. Dilute Compounds 1:20 in polypropylene 96 well plates using starvation media. Dilute dimethylsulfoxide 1:20 for use in control wells.
8. Remove starvation media from 96 well cell culture plates and add 162 μL of fresh starvation media to each well.
9. Add 18 μL of 1:20 diluted Compound dilution (from step 7) to each well plus the 1:20 dimethylsulfoxide dilution to the control wells (+/−VEGF), for a final dilution of 1:200 after cell stimulation. Final dimethylsulfoxide is 0.5%. Incubate the plate at 37° C., 5% CO2 for two hours.
10. Remove unbound antibody from ELISA plates by inverting plate to remove liquid. Wash 3 times with TBSW+0.5% ethanolamine, pH 7.0. Pat the plate on a paper towel to remove excess liquid and bubbles.
11. Block plates with TBSW+0.5% Ethanolamine, pH 7.0, 150 μL per well. Incubate plate thirty minutes while shaking on a microliter plate shaker.
12. Wash plate 3 times as described in step 10.
13. […] Bring final volume to 150 μL/well with TBSW+0.5% ethanolamine pH 7.0. Incubate plate for thirty minutes while shaking.
14. Add 180 μL starvation medium to the cells and stimulate cells with 20 μL/well 10.0 mM sodium ortho vanadate and 500 ng/mL VEGF (resulting in a final concentration of 1.0 mM sodium ortho vanadate and 50 ng/mL VEGF per well) for eight minutes at 37° C., 5% CO2. Negative control wells receive only starvation medium.
15. After eight minutes, media should be removed from the cells and washed one time with 200 μL/well PBS.
16. Lyse cells in 150 μL/well HNTG while shaking at room temperature for five minutes. HNTG formulation includes sodium ortho vanadate, sodium pyro phosphate and EDTA.
17. Wash ELISA plate three times as described in step 10.
18. Transfer cell lysates from the cell plate to ELISA plate and incubate while shaking for two hours. To transfer cell lysate pipette up and down while scrapping the wells.
19. Wash plate three times as described in step 10.
20. Incubate ELISA plate with 0.02 μg/well UB40 in TBSW+05% ethanolamine. Bring final volume to 150 μL/well. Incubate while shaking for 30 minutes.
21. Wash plate three times as described in step 10.
22. Incubate ELISA plate with 1:10,000 diluted EIA grade goat anti-mouse IgG conjugated horseradish peroxidase in TBSW+0.5% ethanolamine, pH 7.0. Bring final volume to 150 μL/well. Incubate while shaking for thirty minutes.
23. Wash plate as described in step 10.
24. Add 100 μL of ABTS/H2O2 solution to well. Incubate ten minutes while shaking.
25. Add 100 μL of 0.2 M HCl for 0.1 M HCl final to stop the color development reaction. Shake 1 minute at room temperature. Remove bubbles with slow stream of air and read the ELISA plate in an ELISA plate reader at 410 nm.
(§1) The IC50 values were measured for several of the compounds of the invention.

pyk-2 protein kinase = biological target: T2, pyk-2 protein kinase (Homo sapiens, UniProt Q14289); assay: Assay measuring PYK-2 protein kinase activity (phosphorylation of a biotinylated peptide); assay type: biochemical; conditions: pyk-2 from transformed yeast lysate, 5 μM ATP; compound at 100 μM
T2 construct: made in house; host or cells: Schizosaccharomyces pombe strain SP200, pRSP expression plasmids
T2 sequence (Q14289 whole entry): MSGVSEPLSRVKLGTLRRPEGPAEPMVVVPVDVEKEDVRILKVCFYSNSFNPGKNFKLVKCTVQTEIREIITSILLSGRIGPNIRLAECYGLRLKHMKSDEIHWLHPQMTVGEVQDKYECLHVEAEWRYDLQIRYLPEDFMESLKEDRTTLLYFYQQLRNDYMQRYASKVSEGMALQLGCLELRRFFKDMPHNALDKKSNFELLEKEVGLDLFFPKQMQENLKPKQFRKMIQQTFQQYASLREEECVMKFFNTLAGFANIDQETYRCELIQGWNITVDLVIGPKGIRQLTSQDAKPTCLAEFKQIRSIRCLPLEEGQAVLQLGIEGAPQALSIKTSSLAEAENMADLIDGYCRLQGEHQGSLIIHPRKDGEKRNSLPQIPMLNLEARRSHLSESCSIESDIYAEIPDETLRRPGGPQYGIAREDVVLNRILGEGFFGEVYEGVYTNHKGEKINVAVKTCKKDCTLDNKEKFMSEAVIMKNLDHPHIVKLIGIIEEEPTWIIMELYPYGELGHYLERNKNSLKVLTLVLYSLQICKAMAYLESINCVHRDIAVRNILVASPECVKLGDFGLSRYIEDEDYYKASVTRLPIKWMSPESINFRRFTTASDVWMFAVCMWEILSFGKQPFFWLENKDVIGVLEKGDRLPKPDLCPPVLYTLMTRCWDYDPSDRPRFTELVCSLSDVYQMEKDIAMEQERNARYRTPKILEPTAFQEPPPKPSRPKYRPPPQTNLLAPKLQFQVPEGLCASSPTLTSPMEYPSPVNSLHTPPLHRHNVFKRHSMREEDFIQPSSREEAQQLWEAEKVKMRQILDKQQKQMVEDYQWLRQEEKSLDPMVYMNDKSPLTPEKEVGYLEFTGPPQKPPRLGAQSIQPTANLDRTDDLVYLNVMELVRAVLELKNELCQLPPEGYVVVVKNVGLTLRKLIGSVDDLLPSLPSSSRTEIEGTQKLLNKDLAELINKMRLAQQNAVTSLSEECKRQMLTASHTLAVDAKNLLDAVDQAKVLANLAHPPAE
Description: This assay is used to determine pyk-2 protein kinase activity measuring phosphorylation of a biotinylated peptide as the readout.
a. Yeast transformed with pyk-2.
b. Cell lysates: Yeast cells expressing pyk-2 are pelleted, washed once with water, re-pelleted and stored at −80° C. until use.
(§2) c. N-terminus biotinylated […] is prepared by standard procedures well known to those skilled in the art.
(§3) h. […] S. Pombe strain SP200 (h-s leul.32 ura4 ade21O) was grown as described and transformations were pRSP expression plasmids were done by the lithium acetate method (Superti-Furga, supra). Cells were grown in the presence of 1 μM thiamine to repress expression from the nmtl promoter or in the absence of thiamine to induce expression.
a. Preparation of pyk-2 coated ELISA plate.
1. Coat ELISA plate with 0.5 μg/well anti-pyk-2 mab in 100 μL of pH 9.6 sodium carbonate buffer at 4° C. overnight.
(§4) 2. Wash wells once with PBS.
(§5) 3. Block plate with 0.15 mL 5% milk in PBS for 30 min. at room temperature.
(§6) 4. Wash plate 5× with PBS.
5. Add 10 μg/well of pyk-2 transformed yeast lysates diluted in Lysis Buffer (0.1 mL total volume per well). (Amount of lysate may vary between hatches.) Shake plate for 20 minutes at room temperature.
(§7) b. Preparation of phosphotyrosine antibody-coated ELISA plate.
(§8) 1. 4G10 plate: coat 0.5 μg/well 4G10 in 100 μL PBS overnight at 4° C. and block with 150 μL of 5% milk in PBS for 30 minutes at room temperature.
(§9) c. Kinase assay procedure.
(§10) 1. Remove unbound proteins from steps 1-7, above, and wash plates 5× with PBS.
2. Add 0.08 mL Kinase Reaction Mixture per well (containing […] of 10×Kinase Buffer and 10 pM (final concentration) biotin-[…] per well diluted in water.
(§11) 3. Add 10 μL of compound diluted in water containing 10% DMSO and pre-incubate for 15 minutes at room temperature.
(§12) 4. Start kinase reaction by adding 10 μL/well of 0.05 mM ATP in water (5 μM ATP final).
(§13) 5. Shake ELISA plate for 15 min. at room temperature.
(§14) 6. Stop kinase reaction by adding 10 μL of 0.5 M EDTA per well.
(§15) 7. Transfer 90 μL supernatant to a blocked 4G10 coated ELISA plate from section B, above.
(§16) 8. Incubate for 30 min. while shaking at room temperature.
(§17) 9. Wash plate 5× with TBST.
(§18) 10. Incubate with Vectastain ELITE ABC reagent (100 μL/well) for 30 min. at room temperature.
(§19) 11. Wash the wells 5× with TBST.
(§20) 12. Develop with Turbo TMB.
as §1

src protein kinase = biological target: T3, src protein kinase (Gallus gallus, UniProt P00523); assay: Assay measuring SRC protein kinase activity (phosphorylation of a biotinylated peptide); assay type: biochemical; conditions: src from transformed yeast lysate, 5 μM ATP; compound at 100 μM
T3 construct: made in house; host or cells: Schizosaccharomyces pombe strain SP200, pRSP expression plasmids
Description: This assay is used to determine src protein kinase activity measuring phosphorylation of a biotinylated peptide as the readout.
a. Yeast transformed with src.
b. Cell lysates: Yeast cells expressing src are pelleted, washed once with water, re-pelleted and stored at −80° C. until use.
as §2, §3
a. Preparation of src coated ELISA plate.
1. Coat ELISA plate with 0.5 μg/well anti-src mab in 100 μL of pH 9.6 sodium carbonate buffer at 4° C. overnight.
as §4, §5, §6
5. Add 10 μg/well of src transformed yeast lysates diluted in Lysis Buffer (0.1 mL total volume per well). (Amount of lysate may vary between hatches.) Shake plate for 20 minutes at room temperature.
as §7, §8, §9, §10
2. Add 0.08 mL Kinase Reaction Mixture per well (containing 10 μL of 10×Kinase Buffer and 10 μM (final concentration) biotin-[…] per well diluted in water.
as §11, §12, §13, §14, §15, §16, §17, §18, §19, §20, §1

Row | SMILES | inhibition at 100 µM (FLK-1 receptor) [%] | inhibition at 100 µM (pyk-2 protein kinase) [%] | inhibition at 100 µM (src protein kinase) [%] | IC50 (FLK-1 receptor; cells without % or + sign) [µM]
1 | Cc1cccc2c1C(=Cc1cc3ccccc3[nH]1)C(=O)N2 [IN-015, 3-(1H-indol-2-ylmethylene)-4-methyl-1,3-dihydro-indol-2-one] | 26 | 3.9 | 16 | –
2 | O=C1Nc2ccc(Br)cc2C1=Cc1cc2ccccc2[nH]1 [IN-014, 5-Bromo-3-(1H-indol-2-ylmethylene)-1,3-dihydro-indol-2-one] | 10 | -14 | -2.4 | –
3 | CNS(=O)(=O)c1ccc2c(c1)C(=Cc1[nH]c3ccccc3c1C)C(=O)N2 [IN-003, 3-(3-Methyl-1H-indol-2-ylmethylene)-2-oxo-2,3-dihydro-1H-indole-5-sulfonic acid methylamide] | 11 | 67.5 | – | –
4 | O=C1Nc2ccc(/N=C/c3cc4ccccc4[nH]3)cc2/C1=C/c1cc2ccccc2[nH]1 [IN-020, 3-(1H-indol-2-ylmethylene)-5-[(1H-indol-2-ylmethylene)-amino]-1,3-dihydro-indol-2-one] | – | 64.3 | 7.62 | > 100
5 | Cc1c(C=C2C(=O)Nc3ccc(S(=O)(=O)N(C)C)cc32)[nH]c2ccccc12 (mixture of isomers) [IN-004, 3-(3-Methyl-1H-indol-2-ylmethylene)-2-oxo-2,3-dihydro-1H-indole-5-sulfonic acid dimethylamide] | 7 | 44.4 | -4.6 | –
